72 compounds from the supplement of paper PMC6723410 can be followed below.

The first test concerns GUMC-403. In words: viability at highest tested concentration (max response) relative to DMSO (% of DMSO control); higher = less cytotoxic. To be noted: library / dose series: MIPE library, 11-point 1:3 dilution; top concentration 23 µM; 48 h. The essentials:
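In 1536-well plates, 700 GUMC-403 papilloma cells per well, taken from a patient and grown by conditional reprogramming, were seeded in 5 μL F + Y medium and incubated overnight at 37 °C. Compounds were pinned in at 23 nL in an 11-point 1:3 series, and left for 48 h before CellTiter-Glo luminescence was read on a ViewLux against vehicle (100%) and empty (0%) wells. Reported values are viability at the highest tested concentration relative to vehicle control.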
`CCCCCCCCCCCCCCCCCCOP(=O)([O-])OC1CC[N+](C)(C)CC1` had a viability of 127.

The same test, now with this note: library / dose series: MIPE library, 11-point 1:3 dilution; top concentration 46.1 µM; 48 h.
For `N[C@@H](Cc1cc(I)c(Oc2cc(I)c(O)c(I)c2)c(I)c1)C(=O)O`, the viability worked out at 123.
With `CCN(CC)CCCCNc1ncc2cc(-c3cc(OC)cc(OC)c3)c(NC(=O)NC(C)(C)C)nc2n1`, the viability was 128.
Consider `CC[S+](=O)([O-])N1CC(CC#N)(n2cc(-c3ncnc4[nH]ccc34)cn2)C1`, for which the viability came to 144.
Same read-out and setting: under `COc1cc2nccc(Oc3ccc(NC(=O)NC4CC4)c(Cl)c3)c2cc1C(N)=O` stands 89.9.
The same measure, in the same setting: the value for `O=C(N[C@@H](c1ccccc1)[C@@H]1CCCCN1)c1cccc(C(F)(F)F)c1Cl` was 99; that for `CO[C@H]1C[C@@H]2CC[C@@H](C)[C@@](O)(O2)C(=O)C(=O)N2CCCC[C@H]2C(=O)O[C@H]([C@H](C)C[C@@H]2CC[C@@H](OP(C)(C)=O)[C@H](OC)C2)CC(=O)[C@H](C)/C=C(\C)[C@@H](O)[C@@H](OC)C(=O)[C@H](C)C[C@H](C)/C=C/C=C/C=C/1C` was 104.
Regarding `COC\1=C(/OC)C(=O)\C(=C(C)/C1=O)CCCCCCCCCCO`, the viability was determined as 112.
On the same count and under the same terms, the value for `CCN(CC)CCOC1=CC=C(NC2=NC=C3\C=C(/C(=O)N(C)C3=N2)C4=C(Cl)C=CC=C4Cl)C=C1` was 75.4; that for `COC1=CC=C(C=C1O)C/2=C/C(=O)C3=C(O2)C=C(O)C=C3O` was 76.3; that for `CCN(CC)Cc1ccc2cc(COC(=O)Nc3ccc(C(=O)NO)cc3)ccc2c1` was 78.6.
Same read-out and setting: the value for `CN(C)C(=O)[C@H](O)[C@H](Cc1ccccc1)NC(=O)c1cc2cc(Cl)ccc2[nH]1` was 114; that for `C=CC1=C(C(=O)O)N2C(=O)[C@@H](NC(=O)/C(=N\O)c3csc(N)n3)[C@H]2SC1` was 130; that for `CC1(C)S[C@H]2[C@H](NC(=O)[C@@H](N)C3=CC=C(O)C=C3)C(=O)[N@]2[C@H]1C(O)=O` was 124.
`CC(N[C@H]1C[C@@H]1c1ccccc1)c1ccc2c(c1)OCCO2` (some centres not stated) gave a viability of 129.
On the same count and under the same terms, the value for `COc1ccc(Cc2ccc(NC(N)=O)cc2)cc1-c1cccc(Cl)c1` was 124.
As for `CN(C)c1nc(N(C)C)nc(N(C)C)n1`, the viability came to 95.4.
`CC(C)c1ccc(Cn2ccc3c4c(N)nc(NC5CC5)nc4ccc32)cc1` displayed a viability of 106.
Take `CC(NC(C)(C)C)C(=O)c1cccc(Cl)c1` (configuration not stated): the viability worked out at 127.
On the same count and under the same terms, under `O=C(Nc1ccc(F)c(C(F)(F)F)c1)Nc1nnc(-c2ccncc2)s1` stands 94; under `CCOC(=O)C(C)(C)Oc1ccc(Cl)cc1`, 110; under `COc1ccc2c(c1OC)CN1CCc3cc4c(cc3C1C2)OCO4` (configuration not stated), 121.
Same read-out and setting: the value for `CN(Cc1cc(Br)cc(Br)c1N)C1CCCCC1` was 122; that for `CCOC(=O)N1CCN(/[N+]([O-])=N/Oc2ccc([N+](=O)[O-])cc2[N+](=O)[O-])CC1` was 118; that for `CC1(C)[C@H](C(=O)O)N2C(=O)C[C@H]2[S+]1(=O)[O-]` was 106.
For `Clc1ccc(C(Cn2ccnc2)OCc2ccsc2Cl)c(Cl)c1` (configuration not stated), the viability came to 107.
`C/C1=C2/[N]3[Co+]456([OH])<-[N]7=C1[C@@H](CCC(N)=O)C(C)(C)/C7=C/C1=[N]->4C(=C(/C)C4=[N]->5[C@@](C)([C@H]3[C@H](CC(N)=O)[C@@]2(C)CCC(=O)NC[C@@H](C)OP(=O)([O-])O[C@H]2[C@@H](O)[C@@H](n3c[n]->6c5cc(C)c(C)cc53)O[C@@H]2CO)[C@@](C)(CC(N)=O)[C@@H]4CCC(N)=O)/[C@@](C)(CC(N)=O)[C@@H]1CCC(N)=O` gave a viability of 91.2.
In the case of `Cc1coc2c1C(=O)C(=O)c1c-2ccc2c1CCCC2(C)C`, the viability was found to be 113.
Same read-out and setting: under `COc1cc2c(N3CCN(C(=O)Nc4ccc(OC(C)C)cc4)CC3)ncnc2cc1OCCCN1CCCCC1` stands 109.
In the case of `CN1CCc2c(n(Cc3ccc(C(=O)NO)cc3)c3ccccc23)C1`, the viability was 107.
The compound `Nc1nc(Nc2ccc([S+](N)(=O)[O-])cc2)nn1C(=O)c1c(F)cccc1F` came in with a viability of 111.
In turn, `CCCNC(=O)Nc1ccc(Oc2ncnc3cc(OC)c(OC)cc23)cc1Cl` yielded a viability of 92.2.
Still for that read-out and setting: under `CCCC(CCC)C(=O)[O-]` stands 88.8.
Same read-out and setting: the value for `CC(C)c1cc(C(C)C)c(CC(=O)N[S+](=O)([O-])Oc2c(C(C)C)cccc2C(C)C)c(C(C)C)c1` was 99.7.
Regarding `CN(C)CCc1c[nH]c2ccc(Cn3cncn3)cc12`, the viability turned out to be 100.
In the case of `Cc1cc(-c2ncc(CC(=O)Nc3ccc(-c4cnccn4)cn3)cc2C)ccn1`, the viability worked out at 85.8.
On the same count and under the same terms, under `NC(=O)Nc1sc(-c2ccc(F)cc2)cc1C(N)=O` stands 51.7.
`CCCN[C@H]1CCc2nc(N)sc2C1` registered a viability of 142.
On the same count and under the same terms, under `C[C@H](O)[C@H]1[C@@H]2[C@H](C)C(=C(\N2C1=O)C(O)=O)/S[C@@H]3CN[C@H](CN[S+](N)([O-])=O)C3` stands 120; under `CCCCCCCCCCCCCC(=O)N[C@H](CO)[C@H](O)c1ccc([N+](=O)[O-])cc1`, 116; under `CC(C)(C#N)c1cc(Cn2cncn2)cc(C(C)(C)C#N)c1`, 116.
On the same count and under the same terms, under `ClC1=CC(=CC=C1)N2CCN(CCCN3\N=C4\C=C/C=C\N4C3=O)CC2` stands 103.
On to `COc1cc(NC(=O)c2ccc(-c3ccc(Cl)cc3)o2)cc(OC)c1`, for which the viability was found to be 39.9.
For the compound `CC1(C)O[C@@H]2C[C@H]3[C@@H]4CCC5=CC(=O)C=C[C@]5(C)[C@H]4[C@@H](O)C[C@]3(C)[C@]2(C(=O)CO)O1`, the viability came out at 147.
Same read-out and setting: the value for `CN1CCN(c2ccc([N+](=O)[O-])c3no[n+]([O-])c23)CC1` was 108; that for `O=C1c2c(O)cccc2[C@H]([C@@H]2O[C@H](CO)[C@@H](O)[C@H](O)[C@H]2O)c2cc(CO)cc(O)c21` was 119; that for `CN1C(=O)/C(=C(NC2=CC=C(I)C=C2F)\C3=C1\N=C/N(C[C@@H](O)CO)C3=O)F` was 28.9.
For the compound `CC1=C(/C=C/C(C)=C/C=C/C(C)=C/C=C/C=C(C)/C=C/C=C(C)/C=C/C2=C(C)CCCC2(C)C)C(C)(C)CCC1`, the viability turned out to be 113.
For `Clc1ccc(COC(Cn2ccnc2)c2ccc(Cl)cc2Cl)c(Cl)c1` (configuration not stated), the viability came out at 92.5.
Still for that read-out and setting: under `CCN1CCN(c2ccc(Nc3cc(N(C)C(=O)Nc4c(Cl)c(OC)cc(OC)c4Cl)ncn3)cc2)CC1` stands 117; under `Cn1c(=O)n(-c2ccc(C(C)(C)C#N)cc2)c2c3cc(-c4cnc5ccccc5c4)ccc3ncc21`, 73.3.
The same measure, in the same setting: the value for `C\C1=N\N=C(\C2=CC=C(N)C=C2)C3=CC4=C(OCO4)C=C3C1` was 132; that for `C[C@]12CC[C@@H]3c4ccc(O)cc4CC[C@H]3[C@@H]1[C@@H](O)[C@@H](O)[C@@H]2O` was 94.5; that for `NC/1=N/C(=O)N(/C=C1F)[C@H]2CS[C@H](CO)O2` was 115.
Still for that read-out and setting: the value for `N#Cc1c(C2CCNCC2)cc(-c2c(O)cccc2OCC2CC2)nc1N` was 103.
`Cc1cc(SCc2sc(-c3ccc(C(F)(F)F)cc3)nc2C)ccc1OCC(=O)O` displayed a viability of 133.
Still for that read-out and setting: the value for `CN(C)CC[C@H](CSc1ccccc1)Nc1ccc([S+](=O)([O-])NC(=O)c2ccc(N3CCN(Cc4ccccc4-c4ccc(Cl)cc4)CC3)cc2)cc1[N+](=O)[O-]` was 114; that for `O=C1C[C@@H](c2ccc(O)cc2)Oc2cc(O)cc(O)c21` was 113.
On the same count and under the same terms, the value for `COc1cc2ncnc(Nc3ccc(F)c(Cl)c3)c2cc1NC(=O)/C=C/CN1CCCCC1` was 63.8.
`COc1ccc2c(c1)CN(C)CC2c1ccc(Cl)c(Cl)c1` (configuration not stated) yielded a viability of 129.
Still for that read-out and setting: the value for `CC(=O)OCCN1C(=O)c2c(C)nc3ccc([S+](=O)([O-])N4CCOCC4)cc3c2C1=O` was 123; that for `C[C@@H](c1ncncc1F)[C@](O)(Cn1cncn1)c1ccc(F)cc1F` was 96.3.
Compound `OC(c1cc(C(F)(F)F)nc2c(C(F)(F)F)cccc12)C1CCCCN1` (configuration not stated) gave a viability of 97.9.
On the same count and under the same terms, under `CC(C)(C)C1=CC(=C(NC(=O)C/2=C/NC3=C(C=CC=C3)C2=O)C=C1O)C(C)(C)C` stands 114; under `Cc1ccc(-n2nc(C(C)(C)C)cc2NC(=O)Nc2ccc(OCCN3CCOCC3)c3ccccc23)cc1`, 56.
Still for that read-out and setting: under `COC1=CC=C(C(=C1)OC(C)C)C/2=N/[C@@H]([C@@H](N2C(=O)N3CCNC(=O)C3)C4=CC=C(Cl)C=C4)C5=CC=C(Cl)C=C5` stands 121.
Same read-out and setting: the value for `O=C(N[C@H](CO)[C@H](O)c1ccc([N+](=O)[O-])cc1)C(Cl)Cl` was 130; that for `O=C1C(CCC(O)c2ccc(F)cc2)C(c2ccc(O)cc2)N1c1ccc(F)cc1` (configuration not stated) was 94.9.
The compound `COc1ccc(C2Sc3ccccc3N(CCN(C)C)C(=O)C2OC(C)=O)cc1` (configuration not stated) returned a viability of 110.

Still in this test, the particulars now being: library / dose series: MIPE library, 11-point 1:3 dilution; top concentration 92.2 µM; 48 h.
`Nc1ccn([C@H]2CS[C@@H](CO)O2)c(=O)n1`: the viability amounted to 106.
Compound `COC1=CC=CC=C1C2=CC=CC(=C2)C/3=C(O)/C4=CC(=C(Cl)C=C4NC3=O)C#N` had a viability of 142.
On to `Nc1cccc2c1CN([C@H]1CCC(=O)NC1=O)C2=O`, for which the viability amounted to 106.
